Results on eleven compounds are retold here after patent US9957246B2, “Prodrugs of tetrahydrocannabinol, compositions comprising prodrugs of tetrahydrocannabinol and methods of using the same” (Zynerba Pharmaceuticals, Inc., priority 2007, dated 2018).

Counter-ions that a name gives are not always drawn.

A short description of data set [1]: In vitro human skin permeation, flow-through diffusion cells.
A short description of data set [2]: Plasma stability of prodrugs (bioconversion to parent drug). The class given is in vitro ADME. Here is the method:
Approximately 1 mg/mL of stock solution of each prodrug was prepared in 100 μL of ethanol and 900 μL of acetonitrile. Next, 10 μL of stock was spiked into 1 mL of plasma and vortexed. The samples were kept sealed in an amber vial and samples were obtained to analyze for bioconversion to parent drug.
An approximated 1 mg/mL stock solution of each prodrug was prepared in 100 μL of ethanol and 900 μL of acetonitrile. Next, 10 μL of stock was spiked into 1 mL of plasma and vortexed. The samples were kept sealed in an amber vial and samples were obtained to analyze for bioconversion to parent drug.
Approximately 1 mg/mL of stock solution of each prodrug was prepared in 100 μL of ethanol and 900 μL of acetonitrile. Ten μL of stock was spiked into 1 mL of plasma and vortexed. The samples were kept sealed in an amber vial and samples were obtained to analyze for bioconversion to parent drug.

[3] abbreviates: Table 7, 2.36:1.18:1 PG:ethanol:H2O donor solution, analyte: THC from prodrug.
Setting [4] is: Table 7, 2.36:1.18:1 PG:ethanol:H2O donor solution, analyte: THC or intact prodrug as applied.
The mark [5] stands for this setting: Table 7, 2.36:1.18:1 PG:ethanol:H2O donor solution, total THC equivalents (THC and/or prodrug).
Where [6] appears, read: Table 8, gel formulation, analyte: THC or intact prodrug as applied.
Setting [7] is: Table 9, 2.36:1.18:1 pH = 5.5 PG:ethanol:H2O donor solution, analyte: THC or intact prodrug as applied.
Where [8] appears, read: Table 10, 2.36:1.18:1 pH = 5.5 PG:ethanol:H2O donor solution, analyte: THC or intact prodrug as applied.
Setting [9] is: Table 17, 90:8:2 PG:H2O:IPM donor solution, analyte: THC or intact prodrug as applied.
Setting [10] is: Table 18, 90:8:2 PG:H2O:IPM donor solution, analyte: THC or intact prodrug as applied.
Where [11] appears, read: Table 19, 90:8:2 PG:H2O:IPM donor solution, analyte: THC or intact prodrug as applied.
Setting [12] is: Table 13, gel formulation with 40% aqueous PEG 400 receiver fluid, analyte: THC or intact prodrug as applied.

Take `CCCCCc1cc(OC(=O)CNC=O)c2c(c1)OC(C)(C)[C@@H]1CCC(C)=C[C@@H]21` [ALL00120, Δ^9-Tetrahydrocannabinol N-formylglycyl ester]: the “24 h cumulative amt” value in data set [1] (setting [3]) is reported as 8.8 ± 1.2 nmol; in data set [1] (setting [4]), 30.5 ± 7.0 nmol; in data set [1] (setting [5]), 39.3 ± 6.6 nmol. Besides, the “24 h skin conc” value is 3.1 ± 1.1 µmol/g in data set [1] (setting [3]); 47.1 ± 6.3 µmol/g in data set [1] (setting [4]); 50.2 ± 7.1 µmol/g in data set [1] (setting [5]); 3.1 ± 2.1 µmol/g in data set [1] (Table 8, gel formulation, analyte: THC from prodrug); 44.8 ± 1.6 µmol/g in data set [1] (setting [6]); 47.9 ± 2.8 µmol/g in data set [1] (Table 8, gel formulation, total THC equivalents (THC and/or prodrug)). The Flux in data set [1] (setting [3]) is on record as 0.6 ± 0.1 nmol/cm^2/h; in data set [1] (setting [4]) it was 2.0 ± 0.5 nmol/cm^2/h; in data set [1] (setting [5]), 2.7 ± 0.5 nmol/cm^2/h. Besides, the Lag time was determined as 9.2 ± 0.8 h in data set [1] (setting [3]), 8.1 ± 1.6 h in data set [1] (setting [4]) and 8.4 ± 1.3 h in data set [1] (setting [5]). Also, in data set [1] (Table 7, 2.36:1.18:1 PG:ethanol:H2O donor solution, total THC equivalents), the Flux enhancement is 0.87. The “% Prodrug at time (h)” value in data set [2] (Table 11, 0.1 h) worked out at 70%; in data set [2] (Table 11, 1 h), 8%; in data set [2] (Table 11, 22 h), 0%; in data set [2] (Table 11, 24 h) it was 0%; in data set [2] (Table 11, 42 h) it was 0%.
On to `CCCCCc1cc(OC(=O)CN(C)C=O)c2c(c1)OC(C)(C)[C@@H]1CCC(C)=C[C@@H]21` [ALL00121, Δ^9-Tetrahydrocannabinol N-formylsarcosyl ester], for which the entries for the “24 h cumulative amt” value in data set [1] (setting [4]) and in data set [1] (setting [6]) were 18.5 ± 5.6 nmol and 8.8 ± 0.1 nmol, respectively. Besides, the “24 h skin conc” value in data set [1] (setting [4]) stood at 72.3 ± 54.0 µmol/g; in data set [1] (setting [6]) it was 33.2 ± 7.2 µmol/g. Further, the Flux in data set [1] (setting [4]) came to 1.2 ± 0.3 nmol/cm^2/h; in data set [1] (setting [6]), 0.38 ± 0.03 nmol/cm^2/h. For the same compound, the Lag time is listed as 8.3 ± 0.5 h in data set [1] (setting [4]) and 1.4 ± 0.0 h in data set [1] (setting [6]). For the same compound, the “% Prodrug at time (h)” value in data set [2] (Table 11, 0.1 h) came to 100%; in data set [2] (Table 11, 1 h) it was 50%; in data set [2] (Table 11, 22 h), 10%; in data set [2] (Table 11, 24 h), 14%; in data set [2] (Table 11, 42 h) it was 0%.
For the compound `CCCCCc1cc(OC(=O)C(=O)OCCOCCOCCOCCOC)c2c(c1)OC(C)(C)[C@@H]1CCC(C)=C[C@@H]21` [ALL00122, Δ^9-Tetrahydrocannabinol 3,6,9,12-tetraoxatridecyl oxalate], the “24 h skin conc” value in data set [1] (setting [7]) stood at 52.7 ± 3.2 µmol/g. Also, the “% Prodrug at time (h)” value in data set [2] (Table 11, 0.1 h) amounted to 0%; in data set [2] (Table 11, 1 h), 0%; in data set [2] (Table 11, 22 h), 0%; in data set [2] (Table 11, 24 h) it was 0%; in data set [2] (Table 11, 42 h), 0%.
In the case of `CCCCCc1cc(OC(=O)CCC(=O)O)c2c(c1)OC(C)(C)[C@@H]1CCC(C)=C[C@@H]21` [ALL00123, Δ^9-Tetrahydrocannabinol hemisuccinate], the “24 h cumulative amt” value in data set [1] (setting [6]) is 2.3 ± 1.5 nmol. For the same compound, the “24 h skin conc” value in data set [1] (setting [6]) came out at 110.4 ± 22.2 µmol/g. Moreover, the Flux in data set [1] (setting [6]) came to 0.15 ± 0.07 nmol/cm^2/h. For the same compound, the “% Prodrug at time (h)” value in data set [2] (Table 11, 0.1 h) is 0%; in data set [2] (Table 11, 1 h), 0%; in data set [2] (Table 11, 22 h), 0%; in data set [2] (Table 11, 24 h), 0%; in data set [2] (Table 11, 42 h), 0%.
Consider `CCCCCc1cc(OC(=O)NCCCCN)c2c(c1)OC(C)(C)[C@@H]1CCC(C)=C[C@@H]21` [ALL00124, Δ^9-Tetrahydrocannabinol 4-aminobutyl carbamate], for which the “24 h cumulative amt” value in data set [1] (setting [7]) came out at 138.7 ± 101.2 nmol; in data set [1] (setting [8]), 245.2 ± 54.1 nmol. In addition, the “24 h skin conc” value in data set [1] (setting [7]) was 17.3 ± 0.4 µmol/g; in data set [1] (setting [8]), 4.3 ± 0.3 µmol/g. The Flux is listed as 9.4 ± 5.9 nmol/cm^2/h in data set [1] (setting [7]) and 16.1 ± 0.1 nmol/cm^2/h in data set [1] (setting [8]). Further, the Lag time is 9.1 ± 2.0 h in data set [1] (setting [7]) and 1.4 ± 0.0 h in data set [1] (setting [8]). The “% Prodrug at time (h)” value in data set [2] (Table 11, 0.1 h) amounted to 97%; in data set [2] (Table 11, 1 h), 97%; in data set [2] (Table 11, 2 h), 97%; in data set [2] (Table 11, 3 h), 96%; in data set [2] (Table 11, 5 h) it was 94%; in data set [2] (Table 11, 24 h) it was 71%.
Turning to `CCCCCc1cc(OC(=O)OC[C@H](O)CO)c2c(c1)OC(C)(C)[C@@H]1CCC(C)=C[C@@H]21` [ALL00126, Δ^9-Tetrahydrocannabinol (R)-2,3-dihydroxypropyl carbonate], in data set [1] (setting [9]), the “24 h cumulative amt” value came to 69.7 ± 10.7 nmol, the “24 h skin conc” value amounted to 17.8 ± 4.8 µmol/g, the Flux was determined as 5.7 ± 0.0 nmol/cm^2/h and the Lag time is 10.8 ± 2.1 h. In addition, in data set [2] (Table 15, 0.1 h), the “% Prodrug at time (h)” value amounted to 100%. Also, in data set [2] (Table 15, 1 h), the “% Prodrug at time (h)” value came out at 3%. In data set [2] (Table 15, 2.5 h), the “% Prodrug at time (h)” value amounted to 1%. In addition, the “% Prodrug at time (h)” value in data set [2] (Table 15, 3.5 h) is given as 1%.
As for `CCCCCc1cc(OC(=O)C(C)(CO)CO)c2c(c1)OC(C)(C)[C@@H]1CCC(C)=C[C@@H]21` [ALL00129, Δ^9-Tetrahydrocannabinol 3-hydroxy-2-(hydroxymethyl)-2-methylpropanoate], in data set [1] (setting [10]), the “24 h cumulative amt” value is on record as 74.2 ± 8.1 nmol, the “24 h skin conc” value came out at 19.6 ± 12.6 µmol/g, the Flux came to 4.8 ± 0.7 nmol/cm^2/h and the Lag time is on record as 7.8 ± 1.3 h. Also, in data set [2] (Table 15, 0.1 h), the “% Prodrug at time (h)” value is recorded as 100%. In data set [2] (Table 15, 1 h), the “% Prodrug at time (h)” value stood at 100%. In addition, in data set [2] (Table 15, 3 h), the “% Prodrug at time (h)” value was 98%. The “% Prodrug at time (h)” value in data set [2] (Table 15, 24 h) turned out to be 83%.
Turning to `CCCCCc1cc(OC(=O)[C@@H](O)CO)c2c(c1)OC(C)(C)[C@@H]1CCC(C)=C[C@@H]21` [ALL00134, A9-Tetrahydrocannabinol (S)-2,3-dihydroxypropanoate], the “24 h cumulative amt” value in data set [1] (setting [11]) was found to be 128.6 ± 5.1 nmol. Moreover, the “24 h skin conc” value in data set [1] (setting [11]) turned out to be 24.5 ± 12.3 µmol/g. Also, the Flux in data set [1] (setting [11]) was determined as 8.0 ± 0.3 nmol/cm^2/h. For the same compound, the Lag time in data set [1] (setting [11]) was determined as 7.0 ± 0.1 h. Moreover, the “% Prodrug at time (h)” value stood at 96% in data set [2] (Table 15, 0.1 h); 61% in data set [2] (Table 15, 0.5 h); 15% in data set [2] (Table 15, 2 h); 0.8% in data set [2] (Table 15, 5 h); 0% in data set [2] (Table 15, 24 h).
For `CCCCCc1cc(OC(=O)OC[C@@H](O)CO)c2c(c1)OC(C)(C)[C@@H]1CCC(C)=C[C@@H]21` [ALL00138, Δ^9-Tetrahydrocannabinol (S)-2,3-dihydroxypropyl carbonate], in data set [1] (setting [10]), the “24 h cumulative amt” value is reported as 18.2 ± 1.4 nmol, the “24 h skin conc” value came to 7.2 ± 4.8 µmol/g, the Flux was 1.0 ± 0.0 nmol/cm^2/h and the Lag time is recorded as 5.9 ± 1.4 h. Further, the “% Prodrug at time (h)” value in data set [2] (Table 15, 0.1 h) is 30%. Further, in data set [2] (Table 15, 0.5 h), the “% Prodrug at time (h)” value was found to be 0%.
For the compound `CCCCCc1cc(OC(=O)CCN(C)C)c2c(c1)OC(C)(C)[C@@H]1CCC(C)=C[C@@H]21` [ALL00153, Δ^9-Tetrahydrocannabinol 3-(dimethylamino)propionate], the “24 h skin conc” value in data set [1] (setting [12]) turned out to be 1.6 ± 0.03 µmol/g; in data set [1] (Table 20, 90:8:2 PG:H2O:IPM donor solution (saturated), analyte: THC or intact prodrug as applied), 0.6 ± 0.1 µmol/g. Further, the “% Prodrug at time (h)” value was determined as 98% in data set [2] (Table 14, 0 h); 72% in data set [2] (Table 14, 1 h); 48% in data set [2] (Table 14, 21 h); 41% in data set [2] (Table 14, 24 h).
As to `CCCCCc1cc(OC(=O)CO)c2c(c1)OC(C)(C)[C@@H]1CCC(C)=C[C@@H]21` [ALL00154, Δ^9-Tetrahydrocannabinol glycolate], in data set [1] (setting [12]), the “24 h cumulative amt” value worked out at 39.2 nmol, the “24 h skin conc” value worked out at 2.6 ± 1.5 µmol/g, the Flux was 3.23 nmol/cm^2/h and the Lag time came out at 12.2 h. Further, the “% Prodrug at time (h)” value in data set [2] (Table 14, 0 h) is recorded as 95%. Moreover, the “% Prodrug at time (h)” value in data set [2] (Table 14, 1 h) is on record as 0%. Also, in data set [2] (Table 14, 21 h), the “% Prodrug at time (h)” value was determined as 0%. The “% Prodrug at time (h)” value in data set [2] (Table 14, 24 h) turned out to be 0%.
